# Reference: ChEMBL document CHEMBL1909046, “DrugMatrix in vitro pharmacology data”
# Assays:
# [1] = DRUGMATRIX: beta-Lactamase enzyme inhibition (substrate: Nitrocefin); parameters: species or system Bacillus cereus; conditions: Not Active = under 50% inhibition at 10 µM
# [2] = DRUGMATRIX: Platelet-Derived Growth Factor (PDGF) radioligand binding (ligand: [125I] PDGF); type: cell-based; conditions: nih3t3; Not Active = under 50% inhibition at 10 µM
# [3] = biological target: T1, Alpha-2C adrenergic receptor (Homo sapiens, UniProt P18825); experiment: DRUGMATRIX: Adrenergic Alpha-2C radioligand binding (ligand: [3H] MK-912); type: cell membranes, Sf9, Membrane; conditions: sf9
# T1 sequence (P18825 whole entry): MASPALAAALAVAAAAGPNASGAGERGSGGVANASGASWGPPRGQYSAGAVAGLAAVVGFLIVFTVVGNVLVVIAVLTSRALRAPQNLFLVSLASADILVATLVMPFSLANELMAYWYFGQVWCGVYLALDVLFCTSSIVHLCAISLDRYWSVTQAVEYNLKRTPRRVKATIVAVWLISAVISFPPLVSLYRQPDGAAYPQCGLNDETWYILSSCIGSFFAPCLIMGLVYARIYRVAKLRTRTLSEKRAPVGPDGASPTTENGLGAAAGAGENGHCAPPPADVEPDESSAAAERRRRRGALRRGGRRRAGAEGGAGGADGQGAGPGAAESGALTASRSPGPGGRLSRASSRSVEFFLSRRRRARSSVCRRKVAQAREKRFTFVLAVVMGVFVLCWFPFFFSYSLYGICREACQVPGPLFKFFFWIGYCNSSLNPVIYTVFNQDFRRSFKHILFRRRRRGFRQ
# [4] = biological target: Beta-2 adrenergic receptor (Homo sapiens, UniProt P07550); experiment: DRUGMATRIX: Adrenergic beta2 radioligand binding (ligand: [3H] CGP-12177); type: cell membranes, Membrane; conditions: cho; Not Active = under 50% inhibition at 10 µM
# Beta-2 adrenergic receptor, sequence (P07550 whole entry): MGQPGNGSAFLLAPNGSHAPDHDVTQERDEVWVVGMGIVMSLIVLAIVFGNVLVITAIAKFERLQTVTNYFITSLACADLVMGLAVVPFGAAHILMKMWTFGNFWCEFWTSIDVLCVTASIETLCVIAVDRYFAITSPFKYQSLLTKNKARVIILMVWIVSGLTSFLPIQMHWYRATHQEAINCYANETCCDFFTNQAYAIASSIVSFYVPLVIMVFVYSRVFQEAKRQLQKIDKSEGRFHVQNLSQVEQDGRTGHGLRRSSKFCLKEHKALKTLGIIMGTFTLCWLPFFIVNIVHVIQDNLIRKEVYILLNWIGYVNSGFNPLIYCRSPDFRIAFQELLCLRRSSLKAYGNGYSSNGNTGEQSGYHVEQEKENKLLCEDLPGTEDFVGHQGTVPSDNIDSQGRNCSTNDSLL
# [5] = biological target: Mitogen-activated protein kinase 3 (Homo sapiens, UniProt P27361); experiment: DRUGMATRIX: Protein Serine/Threonine Kinase, ERK1 enzyme inhibition (substrate: Myelin Basic Protein); parameters: species or system Escherichia coli; conditions: Not Active = under 50% inhibition at 10 µM
# Mitogen-activated protein kinase 3, sequence (P27361 whole entry): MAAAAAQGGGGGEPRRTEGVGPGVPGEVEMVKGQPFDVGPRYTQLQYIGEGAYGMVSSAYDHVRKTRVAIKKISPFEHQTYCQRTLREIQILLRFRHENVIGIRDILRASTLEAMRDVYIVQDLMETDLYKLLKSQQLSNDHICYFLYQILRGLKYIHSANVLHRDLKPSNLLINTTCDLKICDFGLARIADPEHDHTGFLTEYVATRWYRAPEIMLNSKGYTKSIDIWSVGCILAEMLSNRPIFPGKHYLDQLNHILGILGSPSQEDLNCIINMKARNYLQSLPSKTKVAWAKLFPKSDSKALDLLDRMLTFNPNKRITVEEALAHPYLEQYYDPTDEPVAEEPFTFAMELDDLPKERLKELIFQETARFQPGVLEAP
# [6] = biological target: T2, Alpha-1B adrenergic receptor (Rattus norvegicus, UniProt P15823); experiment: DRUGMATRIX: Alpha-1B adrenergic receptor radioligand binding (ligand: prazosin); type: cell membranes, Wistar, Liver, Membrane; conditions: Not Active = under 50% inhibition at 10 µM
# T2 sequence (P15823 whole entry): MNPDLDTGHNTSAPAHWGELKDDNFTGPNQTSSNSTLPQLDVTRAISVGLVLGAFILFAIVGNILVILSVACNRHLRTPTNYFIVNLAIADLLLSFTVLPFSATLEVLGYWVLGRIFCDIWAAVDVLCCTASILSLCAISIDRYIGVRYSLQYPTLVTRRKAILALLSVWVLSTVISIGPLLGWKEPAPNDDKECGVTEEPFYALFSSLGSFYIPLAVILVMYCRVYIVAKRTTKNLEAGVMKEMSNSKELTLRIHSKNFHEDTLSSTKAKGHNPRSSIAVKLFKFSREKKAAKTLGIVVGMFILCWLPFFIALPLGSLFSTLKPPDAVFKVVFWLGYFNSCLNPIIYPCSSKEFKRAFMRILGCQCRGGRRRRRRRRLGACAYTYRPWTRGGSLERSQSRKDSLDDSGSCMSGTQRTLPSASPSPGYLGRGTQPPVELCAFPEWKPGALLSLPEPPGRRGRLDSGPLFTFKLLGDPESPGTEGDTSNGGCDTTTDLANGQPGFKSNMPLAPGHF
# [7] = biological target: T3, Type-2 angiotensin II receptor (Homo sapiens, UniProt P50052); type: cell-based; conditions: cho-k1; also: in other assays of this panel Not Active means under 50% inhibition at 10 µM
# T3 sequence (P50052 whole entry): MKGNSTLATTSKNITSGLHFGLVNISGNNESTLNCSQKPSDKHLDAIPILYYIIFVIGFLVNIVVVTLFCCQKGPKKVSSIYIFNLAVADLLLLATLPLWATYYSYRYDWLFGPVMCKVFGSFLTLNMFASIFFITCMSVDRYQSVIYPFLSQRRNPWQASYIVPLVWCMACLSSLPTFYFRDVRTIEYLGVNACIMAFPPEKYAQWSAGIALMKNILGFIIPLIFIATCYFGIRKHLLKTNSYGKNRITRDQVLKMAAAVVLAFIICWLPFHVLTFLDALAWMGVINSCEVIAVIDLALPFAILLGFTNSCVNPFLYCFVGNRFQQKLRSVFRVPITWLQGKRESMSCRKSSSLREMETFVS
# [8] = biological target: Cannabinoid receptor 1 (Homo sapiens, UniProt P21554); type: cell membranes, Membrane; conditions: chem-1; also: in other assays of this panel Not Active means under 50% inhibition at 10 µM
# Cannabinoid receptor 1, sequence (P21554 whole entry): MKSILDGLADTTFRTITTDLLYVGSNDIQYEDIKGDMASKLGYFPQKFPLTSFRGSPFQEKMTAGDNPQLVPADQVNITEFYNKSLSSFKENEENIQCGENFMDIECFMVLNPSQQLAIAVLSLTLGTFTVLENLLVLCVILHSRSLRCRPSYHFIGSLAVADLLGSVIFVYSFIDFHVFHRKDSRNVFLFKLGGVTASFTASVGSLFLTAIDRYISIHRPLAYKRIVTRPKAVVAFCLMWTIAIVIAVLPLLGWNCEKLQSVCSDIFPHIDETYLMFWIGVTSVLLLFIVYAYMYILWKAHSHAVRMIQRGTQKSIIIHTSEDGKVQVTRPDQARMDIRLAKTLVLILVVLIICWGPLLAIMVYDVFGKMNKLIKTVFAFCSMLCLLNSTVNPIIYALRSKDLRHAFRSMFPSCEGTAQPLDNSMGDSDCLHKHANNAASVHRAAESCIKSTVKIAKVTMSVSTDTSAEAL
# [9] = DRUGMATRIX: Sodium/nucleoside co-transporter radioligand binding (ligand: nitrobenzylthioinosine); type: cell membranes, Cavia porcellus, Dunkin-Hartley, Cerebral cortex, Membrane; conditions: Not Active = under 50% inhibition at 10 µM
# [10] = biological target: T4, C-C chemokine receptor type 4 (Homo sapiens, UniProt P51679); type: cell membranes, Membrane; conditions: chem-1; also: in other assays of this panel Not Active means under 50% inhibition at 10 µM
# T4 sequence (P51679 whole entry): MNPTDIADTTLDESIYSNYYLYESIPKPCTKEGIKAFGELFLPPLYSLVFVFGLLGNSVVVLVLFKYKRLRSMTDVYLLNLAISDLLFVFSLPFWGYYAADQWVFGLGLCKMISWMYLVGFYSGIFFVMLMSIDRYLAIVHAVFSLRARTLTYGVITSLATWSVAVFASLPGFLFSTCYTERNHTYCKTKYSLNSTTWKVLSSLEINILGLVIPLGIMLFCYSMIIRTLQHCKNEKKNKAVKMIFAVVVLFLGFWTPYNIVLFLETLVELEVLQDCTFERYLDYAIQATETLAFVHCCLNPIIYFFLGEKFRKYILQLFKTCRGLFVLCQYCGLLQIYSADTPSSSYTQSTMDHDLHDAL
# [11] = biological target: T5, Cytochrome P450 2A6 (Homo sapiens, UniProt P11509); conditions: bti-tn-5b1-4; also: in other assays of this panel Not Active means under 50% inhibition at 10 µM
# T5 sequence (P11509 whole entry): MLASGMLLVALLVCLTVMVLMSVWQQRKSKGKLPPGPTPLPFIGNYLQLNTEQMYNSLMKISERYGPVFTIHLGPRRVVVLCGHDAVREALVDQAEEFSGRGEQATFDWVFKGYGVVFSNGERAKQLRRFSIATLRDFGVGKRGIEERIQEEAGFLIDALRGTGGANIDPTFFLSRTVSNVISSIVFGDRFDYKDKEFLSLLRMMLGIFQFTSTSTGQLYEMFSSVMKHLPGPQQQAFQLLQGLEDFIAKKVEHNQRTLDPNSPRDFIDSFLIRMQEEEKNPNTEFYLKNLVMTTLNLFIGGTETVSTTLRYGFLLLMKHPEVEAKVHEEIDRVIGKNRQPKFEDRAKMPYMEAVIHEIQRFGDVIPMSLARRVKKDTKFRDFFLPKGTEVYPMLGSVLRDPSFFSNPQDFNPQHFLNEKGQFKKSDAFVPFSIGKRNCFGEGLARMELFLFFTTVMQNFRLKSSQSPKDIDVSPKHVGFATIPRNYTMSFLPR
# [12] = biological target: Cytochrome P450 2E1 (Homo sapiens, UniProt P05181); conditions: bti-tn-5b1-4; also: in other assays of this panel Not Active means under 50% inhibition at 10 µM
# Cytochrome P450 2E1, sequence (P05181 whole entry): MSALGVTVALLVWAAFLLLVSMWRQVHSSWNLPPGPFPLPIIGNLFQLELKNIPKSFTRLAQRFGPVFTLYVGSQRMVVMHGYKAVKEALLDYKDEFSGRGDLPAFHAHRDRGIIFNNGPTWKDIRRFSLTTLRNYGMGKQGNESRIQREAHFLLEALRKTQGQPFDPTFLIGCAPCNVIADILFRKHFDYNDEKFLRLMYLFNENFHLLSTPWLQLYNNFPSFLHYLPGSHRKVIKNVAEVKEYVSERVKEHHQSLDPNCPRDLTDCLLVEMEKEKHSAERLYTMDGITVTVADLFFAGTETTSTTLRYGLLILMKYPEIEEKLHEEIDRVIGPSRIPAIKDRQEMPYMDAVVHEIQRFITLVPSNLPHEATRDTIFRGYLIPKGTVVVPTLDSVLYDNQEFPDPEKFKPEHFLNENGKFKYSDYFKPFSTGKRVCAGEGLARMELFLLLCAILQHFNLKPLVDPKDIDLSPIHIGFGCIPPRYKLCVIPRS
SMILES,IC50 [1],Ki [1],IC50 [2],Ki [2],IC50 [3],IC50 [4],IC50 [5],IC50 [6],IC50 [7],IC50 [8],IC50 [9],Ki [9],IC50 [10],IC50 [11],Ki [11],IC50 [12],Ki [12],IC50 ([9]; read-out: IC50) [µM],Ki ([9]; read-out: Ki) [µM]
CN[C@@H]1[C@@H](O)[C@@H](O[C@@H]2[C@@H](O)[C@H](O[C@H]3OC(CN)=CC[C@H]3N)[C@@H](N)C[C@H]2N)OC[C@]1(C)O [SISOMICIN],Not Active,Not Active,Not Active,Not Active,Not Active,Not Active,Not Active,Not Active,Not Active,Not Active,Not Active,Not Active,Not Active,,,,,,
NNc1ccccc1 [PHENYLHYDRAZINE],Not Active,Not Active,Not Active,Not Active,Not Active,Not Active,Not Active,Not Active,Not Active,Not Active,Not Active,Not Active,Not Active,Not Active,Not Active,Not Active,Not Active,,
C[C@](N)(Cc1ccc(O)cc1)C(=O)O [METYROSINE],Not Active,Not Active,Not Active,Not Active,Not Active,Not Active,Not Active,Not Active,Not Active,Not Active,Not Active,Not Active,Not Active,Not Active,Not Active,Not Active,Not Active,,
CC(=O)[C@H]1CC[C@H]2[C@@H]3CCC4=CC(=O)CC[C@]4(C)[C@H]3CC[C@]12C [PROGESTERONE],Not Active,Not Active,Not Active,Not Active,Not Active,Not Active,Not Active,Not Active,Not Active,Not Active,,,Not Active,Not Active,Not Active,Not Active,Not Active,19.6,6.7
Nc1ccc(S(=O)(=O)Nc2ccnn2-c2ccccc2)cc1 [SULFAPHENAZOLE],Not Active,Not Active,Not Active,Not Active,Not Active,Not Active,Not Active,Not Active,Not Active,Not Active,Not Active,Not Active,Not Active,Not Active,Not Active,Not Active,Not Active,,
CC(C)(C)NC(=O)[C@@H]1CN(Cc2cccnc2)CCN1C[C@@H](O)C[C@@H](Cc1ccccc1)C(=O)N[C@H]1c2ccccc2C[C@H]1O.O,Not Active,Not Active,Not Active,Not Active,Not Active,Not Active,Not Active,Not Active,Not Active,Not Active,Not Active,Not Active,Not Active,Not Active,Not Active,Not Active,Not Active,,
COc1c(C)c2c(c(O)c1C/C=C(\C)CCC(=O)OCCN1CCOCC1)C(=O)OC2 [MYCOPHENOLATE MOFETIL],Not Active,Not Active,Not Active,Not Active,Not Active,Not Active,Not Active,Not Active,Not Active,Not Active,Not Active,Not Active,Not Active,Not Active,Not Active,Not Active,Not Active,,
O=C1c2c(O)ccc(O)c2C(=O)c2c(NCCNCCO)ccc(NCCNCCO)c21 [MITOXANTRONE],Not Active,Not Active,Not Active,Not Active,Not Active,Not Active,Not Active,Not Active,Not Active,Not Active,Not Active,Not Active,Not Active,,,,,,
COC(=O)C1=C(C)NC(C)=C(C(=O)OC)C1c1ccccc1[N+](=O)[O-] [NIFEDIPINE],Not Active,Not Active,Not Active,Not Active,Not Active,Not Active,Not Active,Not Active,Not Active,Not Active,,,Not Active,,,,,23.8,8.15
